Earlier results in patent publication EP3933036B1, “PROCESS FOR 7-BETA-HYDROXYLATION OF BILE ACID DERIVATIVES” (MICROMUN Institut für Mikrobiologische Forschung GmbH, priority 2020, dated 2022).

Settings: at 298 K

Structure (SMILES) | octanol/water partition coefficient (KOW)
C[S+](C)[O-] [DMSO] | 2
CC#N [acetonitrile] | 2
CCOC(C)=O [ethyl acetate] | 11
